# Patent publication US8697694B2, “Substituted pyridine and pyrimidine derivatives and their use in treating viral infections” (priority 2008, dated 2014)
# Tested on: HCV replicon cells
# Assay: Cell-based HCV replicon assay (replicon RNA level by real time PCR, Taqman)
# Conditions: Hepatitis C virus, 72 h, HCV replicon cells, harvested day 3, replicon RNA by real time PCR; given as number; read-out: EC90 (μM) range
# How it was run: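 HCV replicon cells treated 3 days with 10 serial 2-fold compound dilutions (top 25 μM to 1 μM; 0.5% DMSO, 10% FBS). Replicon RNA quantified by multiplex Taqman RT-PCR (NS5B amplicon, GAPDH control); EC50 and EC90 = concentrations giving ΔCT of 1 and 3.2 over baseline.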
row,Compound,EC90 [µM]
1,CCOc1cc2cc(-c3c(C)nc(NC(C)(C)CC)nc3N[C@@H]3C[C@H](CO)[C@@H](O)[C@H]3O)oc2c(C)n1 [Example 26],0.5
2,CCOc1cc2cc(-c3c(C)nc(NC(C)C)nc3N[C@@H]3C[C@H](CO)[C@@H](O)[C@H]3O)oc2c(C)n1 [Example 32],0.95

# Same assay, conditions: Hepatitis C virus, 72 h, HCV replicon cells, harvested day 3, replicon RNA by real time PCR; reported as range class; read-out: EC90 (μM) range
row,Compound,EC90 [µM]
1,Nc1nc(Cl)c(-c2cc3cnccc3o2)c(N[C@@H]2C[C@H](CO)[C@@H](O)[C@H]2O)n1 [Example 8],0.5 to 5
2,COc1cc2cc(-c3c(Cl)nc(NCC(F)(F)F)nc3N[C@@H]3C[C@H](CO)[C@@H](O)[C@H]3O)oc2cn1 [Example 22],< 0.5
3,Cc1cncc2oc(-c3c(Cl)nc(N)nc3N[C@@H]3C[C@H](CO)[C@@H](O)[C@H]3O)cc12 [Example 304],> 5
4,OC[C@H]1C[C@@H](Nc2nc(NCCF)nc(Cl)c2-c2nc3ccccc3s2)[C@H](O)[C@@H]1O [Example 213],< 0.5
5,CN(C)c1nc(Cl)c(-c2nc3ccccc3o2)c(N[C@@H]2C[C@H](CO)[C@@H](O)[C@H]2O)n1 [Example 117],0.5 to 5
6,OC[C@H]1C[C@@H](Nc2nc(N3CCOCC3)nc(Cl)c2-c2nc3ccccc3s2)[C@H](O)[C@@H]1O [Example 116],0.5 to 5
7,CN(C)c1nc(Cl)c(-c2nc3ccccc3s2)c(N[C@@H]2C[C@H](CO)[C@@H](O)[C@H]2O)n1 [Example 408],< 0.5
8,Nc1nc(Cl)c(-c2cc3cc(F)cc(F)c3o2)c(N[C@@H]2C[C@H](CO)[C@@H](O)[C@H]2O)n1 [Example 170],> 5
9,CCOc1ccc2nc(-c3c(C)nc(N(C)C)nc3N[C@@H]3C[C@H](CO)[C@@H](O)[C@H]3O)sc2c1 [Example 207],> 5
10,CN(C)c1nc(N[C@@H]2C[C@H](CO)[C@@H](O)[C@H]2O)c(-c2nc3ccccc3s2)c(-c2cccs2)n1 [Example 415],> 5
11,COCCN(C)c1nc(Cl)c(-c2nc3ccccc3s2)c(N[C@@H]2C[C@H](CO)[C@@H](O)[C@H]2O)n1 [Example 202],0.5 to 5

# Same assay, conditions: Hepatitis C virus, 72 h, HCV replicon cells, harvested on day 3, replicon RNA by real time PCR; calculated EC90 reported as range class; read-out: EC90 (μM) range
row,Compound,EC90 [µM]
1,Cc1csc(CNc2nc(C)c(-c3nc4ccccc4s3)c(N[C@@H]3C[C@H](CO)[C@@H](O)[C@H]3O)n2)c1 [Example 480],< 0.5
2,Cc1nc(NCc2ccc(F)cc2)nc(N[C@@H]2C[C@H](CO)[C@H]3OC(C)(C)O[C@H]32)c1-c1nc2ccccc2s1 [Example 235],< 0.5
3,Cc1nc(NCc2cccc(C(F)(F)F)c2)nc(N[C@@H]2C[C@H](CO)[C@@H](O)[C@H]2O)c1-c1nc2ccccc2s1 [Example 240],< 0.5
4,Cc1cc(CNc2nc(C)c(-c3nc4ccccc4s3)c(N[C@@H]3C[C@H](CO)[C@@H](O)[C@H]3O)n2)on1 [Example 493],< 0.5
5,Cc1nc(NCCNS(C)(=O)=O)nc(N[C@@H]2C[C@H](CO)[C@@H](O)[C@H]2O)c1-c1nc2ccccc2s1 [Example 258],0.5 to 5
6,OC[C@H]1C[C@@H](Nc2nc(NCC3CC3)nc(Cl)c2-c2nc3ccccc3s2)[C@H](O)[C@@H]1O [Example 504],< 0.5
7,COc1cccc(CNc2nc(C)c(-c3nc4ccccc4s3)c(N[C@@H]3C[C@H](CO)[C@H]4OC(C)(C)O[C@H]43)n2)c1 [Example 483],0.5 to 5
8,Cc1ccc(CNc2nc(C)c(-c3nc4ccccc4s3)c(N[C@@H]3C[C@H](CO)[C@H]4OC(C)(C)O[C@H]43)n2)cc1 [Example 489],0.5 to 5
9,Cc1nc(NCC2CCCCC2)nc(N[C@@H]2C[C@H](CO)[C@@H](O)[C@H]2O)c1-c1nc2ccccc2s1 [Example 323],< 0.5
10,COCc1cc2cc(-c3c(C)nc(NCc4nccs4)nc3N[C@@H]3C[C@H](CO)[C@H]4OC(C)(C)O[C@H]43)oc2cn1 [Example 339],< 0.5
11,Cc1nc(N[C@@H](C)C(F)(F)F)nc(N[C@@H]2C[C@H](CO)[C@@H](O)[C@H]2O)c1-c1nc2ccccc2s1 [Example 132],0.5 to 5
12,CCc1cc2cc(-c3c(C)nc(NCc4cc(C)on4)nc3N[C@@H]3C[C@H](CO)[C@H]4OC(C)(C)O[C@H]43)oc2cn1 [Example 702],< 0.5
13,OC[C@H]1C[C@@H](Nc2nc(NCC3CCCCC3)nc(Cl)c2-c2nc3ccccc3s2)[C@H](O)[C@@H]1O [Example 322],< 0.5

# Same assay, conditions: Hepatitis C virus, 72 h, HCV replicon cells, replicon RNA level by real time PCR (Taqman), day 3; calculated EC90; read-out: EC90 (μM) range
row,Compound,EC90 [µM]
1,Cc1ccc([C@H](Nc2nc(C)c(-c3nc4ccccc4s3)c(N[C@@H]3C[C@H](CO)[C@@H](O)[C@H]3O)n2)C(F)(F)F)cc1 [Example 2005],0.5 to 5

# Same assay, conditions: Hepatitis C virus, 72 h, HCV replicon cells, replicon RNA level by real time PCR (Taqman), harvested on day 3; calculated EC90 reported as range class; read-out: EC90 (μM) range
row,Compound,EC90 [µM]
1,COCc1cc2cc(-c3c(C)nc(NCc4ccco4)nc3N[C@@H]3C[C@H](CO)[C@@H](O)[C@H]3O)oc2cn1 [Example 1108],< 0.5
2,Cc1ccc(C2(Nc3nc(C)c(-c4nc5cnccc5s4)c(N[C@@H]4C[C@H](CO)[C@@H](O)[C@H]4O)n3)CC2)cc1 [Example 1315],0.5 to 5
3,Cc1nc(NCc2ccco2)nc(N[C@@H]2C[C@H](CO)[C@@H](O)[C@H]2O)c1-c1nc2cnccc2s1 [Example 1215],< 0.5
4,Cc1nc(NCC(C)(C)C)nc(N[C@@H]2C[C@H](CO)[C@H]3OC(C)(C)O[C@H]32)c1-c1cc2cc(C(C)(C)C)ncc2o1 [Example 1103],> 5
5,Cc1ccc([C@H](C)Nc2nc(C)c(-c3nc4cnccc4s3)c(N[C@@H]3C[C@H](CO)[C@@H](O)[C@H]3O)n2)cc1 [Example 1314],0.5 to 5
6,Cc1nc(NCC(F)(F)F)nc(N[C@@H]2C[C@H](CO)[C@@H](O)[C@@H]2O)c1-c1nc2ccccc2s1 [Example 1253],0.5 to 5
7,CCOCCNc1nc(C)c(-c2ccc3ccccc3n2)c(N[C@@H]2C[C@H](CO)[C@@H](O)[C@H]2O)n1 [Example 1324],> 5
8,Cc1nc(NCC2CC2)nc(N[C@@H]2C[C@H](CO)[C@@H](O)[C@H]2O)c1-c1cc2cc(OCC(C)C)nc(C)c2o1 [Example 1054],0.5 to 5
9,CCOc1nc(C)cc2cc(-c3c(C)nc(NCC(F)(F)F)nc3N[C@@H]3C[C@H](CO)[C@@H](O)[C@H]3O)oc12 [Example 1246],< 0.5
10,Cc1nc(OCC(F)(F)F)nc(N[C@@H]2C[C@H](CO)[C@@H](O)[C@H]2O)c1-c1nc2ccccc2s1 [Example 1057],> 5
11,Cc1ccc([C@@H](C)Nc2nc(C)c(-c3nc4cnccc4s3)c(N[C@@H]3C[C@H](CO)[C@@H](O)[C@H]3O)n2)cc1 [Example 544],< 0.5

# Same assay, conditions: Hepatitis C virus, 72 h, HCV replicon cells, replicon RNA level by real time PCR, harvested day 3; read-out: EC90 (μM) range
row,Compound,EC90 [µM]
1,CCNC(=O)OC[C@H]1C[C@@H](Nc2nc(NCC3CC3)nc(C)c2-c2nc3ccccc3s2)[C@H](O)[C@@H]1O [Example 1629],0.5 to 5
2,Cc1nc(N[C@@H](c2ccsc2)C(F)(F)F)nc(N[C@@H]2C[C@H](CO)[C@@H](O)[C@H]2O)c1-c1nc2ccccc2s1 [Example 1703],0.5 to 5
3,Cc1nc(NCc2ccc3[nH]cnc3c2)nc(N[C@@H]2C[C@H](CO)[C@@H](O)[C@H]2O)c1-c1nc2ccccc2s1 [Example 1912],< 0.5
4,CCOc1cc2cc(-c3c(C)nc(NCC4CC4)nc3N[C@@H]3C[C@H](CNS(C)(=O)=O)[C@@H](O)[C@H]3O)oc2c(C)n1 [Example 1347],< 0.5
5,Cc1nc(NCCc2ccc(Cl)c(Cl)c2)nc(N[C@@H]2C[C@H](CO)[C@@H](O)[C@H]2O)c1-c1nc2cnccc2s1 [Example 1914],< 0.5
6,Cc1nc(NCC(F)(F)F)nc(N[C@@H]2CC[C@@H](O)[C@@]2(C)O)c1-c1nc2ccccc2s1 [Example 1702],0.5 to 5
7,Cc1nc(N[C@H](C)C2CC2)nc(N[C@@H]2C[C@H](CO)[C@@H](O)C2(C)O)c1-c1nc2cnccc2s1 (stereo partly shown) [Example 1384],< 0.5
8,Cc1nc(N[C@H](c2ccc(-n3cccn3)cc2)C(F)(F)F)nc(N[C@@H]2C[C@H](CO)[C@@H](O)[C@H]2O)c1-c1nc2c(C)nccc2s1 [Example 1530],> 5
